Results as given in US20200392150A1, “Diaryl-B-Lactam Compound and Preparation Method and Pharmaceutical Use Thereof” (Fudan University, priority 2016, published 2020).
Like-named read-outs stand apart in the source and are kept apart here.

Tests used:
[1] = test system: tubulin in Hela cells; assay: Immunoblotting analysis of polymerized/depolymerized tubulin; type: cell-based, human; details: 6 h
Description: After being treated with diluent (0.2% DMSO), tested compound, CA-4 or PTX for 6 h, Hela cells were lysed with microtubulestabilizing buffer, containing 100 mM PIPES, pH 6.8, 1 mM MgCl2, 2 mM EGTA, 0.5% NP-40, 2 M glycerol, 5 μM PTX and protease inhibitors cocktail (Roche), and the lysate was centrifuged at 15,000 rpm for 15 min. Supernatant containing depolymerized tubulin was carefully collected, whereas pellet (polymerized tubulin) was further dissolved in SDS-lysis buffer (Beyotime, China). Equal amounts of supernatant and dissolved pellet were subjected to immunoblotting analysis as described above using atubulin antibody (Proteintech).

[2] = test system: tubulin in SKOV-3 cells; assay: Immunofluorescent analysis of tubulin morphology; type: cell-based, human; details: 24 h
Description: After treatment with diluent (0.2% DMSO) or tested compounds at indicated concentrations for 24 h, SKOV-3 cells were fixed with methanol, permeabilized with 0.1% Triton X-100 in PBS and blocked by goat serum. Then the cells were incubated with a-tubulin antibody at 4° C. overnight, followed by incubation with Alexa 488 labeled secondary antibody (Jackson ImmunoResearch) at RT for 1 h. After being stained with DAPI, cells were examined and photographed with a Leica SP5 co-focal fluorescence microscope.

[3] = test system: A2780; assay: In vitro cell growth inhibition assay (MTT); type: cell-based, human; details: read-out: IC50 A2780
Outline: (§1)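 IC50 values come from growth inhibition rates calculated from MTT absorbance at 540 nm. Compound exposure lasted 48 h on cells plated at 5000 per well.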

[4] = test system: Hela; assay: In vitro cell growth inhibition assay (MTT); type: cell-based, human; details: 48 h, read-out: IC50 Hela
Outline: as §1

[5] = test system: SKOV3; assay: In vitro cell growth inhibition assay (MTT); type: cell-based, human; details: read-out: IC50 SKOV3
Outline: as §1

[6] = test system: MDA-MB-231; assay: In vitro cell growth inhibition assay (MTT); type: cell-based, human; details: read-out: IC50 MDA-MB-231
Outline: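 Following overnight adherence of 5000 cells per well, compounds or 0.2% DMSO were applied for 48 h. Medium was then swapped for 0.5 mg/mL MTT medium (4 h, 37° C), crystals dissolved in DMSO, and plates read at 540 nm.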

[7] = A2780 human ovarian cancer cell line, 48 h, MTT
[8] = Hela human cervical cancer cell line, MTT
[9] = SK-OV-3, SKOV-3 human ovarian cancer cell line, 48 h, MTT
[10] = MDA-MB-231 human breast cancer cell line, 48 h, MTT

| Structure (SMILES) | polymerized tubulin (immunoblotting) [1] | tubulin assembly (immunofluorescence) [2] | IC50 [3, 7] | IC50 [4, 8] | IC50 [5, 9] | IC50 [6, 10] | melting point | IC50 ([3]; Homo sapiens, A2780, 48 h) | IC50 ([4]; Homo sapiens, HeLa) | IC50 ([5]; Homo sapiens, SK-OV-3, 48 h) | IC50 ([6]; Homo sapiens, MDA-MB-231, 48 h) |
| --- | --- | --- | --- | --- | --- | --- | --- | --- | --- | --- | --- |
| C=C1C(=O)N(c2cc(OC)c(OC)c(OC)c2)[C@H]1c1ccc(OC)c(O)c1 [Compound 1, (S)-4-(3-hydroxy-4-methoxyphenyl)-3-methylene-1-(3,4,5-trimethoxyphenyl)azetidin-2-one] | significantly inhibit tubulin aggregation | significantly inhibit tubulin aggregation | 143 nM | 186 nM | 128 nM | 234 nM |  |  |  |  |  |
| C=C1C(=O)N(c2cc(OC)c(OC)c(OC)c2)[C@H]1c1ccc(OC)c(OC(=O)c2ccccc2)c1 [Compound 18, (S)-2-methoxy-5-(3-methylene-4-oxo-1-(3,4,5-trimethoxyphenyl)azetidin-2-yl)phenyl benzoate] |  |  | 287 nM | 386 nM | 484 nM | 637 nM | 151 to 152 °C |  |  |  |  |
| C=C1C(=O)N(c2ccc(OC)c(OC)c2)[C@H]1c1ccc(OC)c(O)c1 [Compound 48, (S)-1-(3,4-dimethoxyphenyl)-4-(3-hydroxy-4-methoxyphenyl)-3-methyleneazetidin-2-one] |  |  | 4570 nM | > 20000 nM | 14800 nM | 6100 nM | 74 to 75 °C |  |  |  |  |
| C=C1C(=O)N(c2cc(OC)c(OC)c(OC)c2)[C@H]1c1ccc(OC)c(OC(=O)C2CC2)c1 [Compound 23, (S)-2-methoxy-5-(3-methylene-4-oxo-1-(3,4,5-trimethoxyphenyl)azetidin-2-yl)phenyl cyclopropanecarboxylate] |  |  |  |  |  |  | 68 to 69 °C | 129 nM | 142 nM | 108 nM | 207 nM |
| C=C1C(=O)N(c2cc(OC)c(OC)c(OC)c2)[C@H]1c1ccc(OC)c(OCCC)c1 [Compound 4, (S)-4-(4-methoxy-3-propoxyphenyl)-3-methylene-1-(3,4,5-trimethoxyphenyl)azetidin-2-one] |  |  | 3420 nM | 6890 nM | 5260 nM | 5620 nM | 90 to 91 °C |  |  |  |  |
| C=C1C(=O)N(c2cc(OC)c(OC)c(OC)c2)[C@H]1c1ccc(OC)c(OS(=O)(=O)N2CCOCC2)c1 [Compound 29, (S)-2-methoxy-5-(3-methylene-4-oxo-1-(3,4,5-trimethoxyphenyl)azetidin-2-yl)phenyl morpholine-4-sulfonate] |  |  | 12900 nM | 19300 nM | 15600 nM | > 20000 nM | 134 to 135 °C |  |  |  |  |
| C=C1C(=O)N(c2cc(OC)c(OC)c(OC)c2)[C@H]1c1ccc(OC)c(OS(N)(=O)=O)c1 [Compound 26, (S)-2-methoxy-5-(3-methylene-4-oxo-1-(3,4,5-trimethoxyphenyl)azetidin-2-yl)phenyl sulfamate] |  |  | 133 nM | 224 nM | 177 nM | 240 nM | 199 to 200 °C |  |  |  |  |
| C=C1C(=O)N(c2cc(OC)c(OC)c(OC)c2)[C@H]1c1ccc(OC)c(OS(=O)(=O)CCN2C(=O)c3ccccc3C2=O)c1 [Compound 28, (S)-2-methoxy-5-(3-methylene-4-oxo-1-(3,4,5-trimethoxyphenyl)azetidin-2-yl)phenyl 2-(1,3-dioxoisoindolin-2-yl)ethanesulfonate] |  |  | 16800 nM | > 20000 nM | 13300 nM | > 20000 nM | 69 to 70 °C |  |  |  |  |
